Data from ChEMBL document CHEMBL1201862, “PubChem BioAssay data set” (2004).
Active and inactive are the calls of the source.

Key:
[1] = biological target: NAD-dependent protein deacylase sirtuin-5, mitochondrial (Homo sapiens, UniProt Q9NXA8); assay: sirtuin-5 deacylation blockers, concentration series – biochemical, fluorescence imaging, cherry-pick, set 5, dose response (AID 720591);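 further: desuccinylation of succinyl peptide AMC substrate read as fluorescence after trypsin release; potency of inhibitors that lower fluorescence and may act on trypsin instead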
[2] = intracellular Trypanosoma cruzi inhibitors in host cells – cell-based, plate reader, cherry-pick samples, set 3, dose response (AID 651818); format: functional;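 further: compounds incubated with infected cells for about four days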
[3] = DRD fibroblast viability loss – cell-based, non-viral oncogenic, luminescence, dose response (AID 1934); format: functional; conditions: Homo sapiens
BJ [4] = assay: BJ-TERT fibroblast viability loss – cell-based, RAS-independent, luminescence, dose response (AID 1933); format: functional; conditions: Homo sapiens
BJ [5] = assay: cells; format: functional, cell-based; conditions: Homo sapiens
BJ [6] = assay: BJ-TERT-LT-ST fibroblast viability loss – cell-based, RAS-independent, luminescence, dose response (AID 1935); format: functional; conditions: Homo sapiens;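 further: BJ fibroblasts immortalized with TERT plus LT and ST oncogenes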
Nonstructural protein 1 = Nonstructural protein 1 (Influenza A virus, UniProt Q194T2); format: functional, Influenza A virus (A/California/07/2009(H1N1))
[7] = biological target: T1, Heat shock factor protein 1 (Mus musculus, UniProt P38532); assay: enhancement of HSF1-driven luciferase signal – cell-based, NIH3T3, luminescence, dose retest, confirmation (AID 435004); format: functional;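 further: stress induced by proteasome inhibitor MG132 added 30 min after compound; luciferase reporter driven by HSF1 response element in NIH3T3 cells; actives raise luminescence as potentiators of the MG132 stress response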
T1 sequence (P38532 whole entry): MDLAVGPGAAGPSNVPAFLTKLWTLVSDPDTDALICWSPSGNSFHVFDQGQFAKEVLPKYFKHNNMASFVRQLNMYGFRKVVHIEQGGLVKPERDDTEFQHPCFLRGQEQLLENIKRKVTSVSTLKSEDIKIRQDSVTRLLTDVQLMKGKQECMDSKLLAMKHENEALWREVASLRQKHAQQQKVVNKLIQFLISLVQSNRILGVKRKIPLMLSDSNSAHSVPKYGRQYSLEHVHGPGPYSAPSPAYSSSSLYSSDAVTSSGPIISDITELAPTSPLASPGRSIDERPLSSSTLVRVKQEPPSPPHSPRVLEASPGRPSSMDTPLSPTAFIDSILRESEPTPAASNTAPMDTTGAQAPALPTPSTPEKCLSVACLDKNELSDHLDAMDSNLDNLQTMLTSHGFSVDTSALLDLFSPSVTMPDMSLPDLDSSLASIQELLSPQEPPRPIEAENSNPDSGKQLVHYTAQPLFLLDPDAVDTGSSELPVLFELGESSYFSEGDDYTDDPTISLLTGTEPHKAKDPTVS

Vero = assay: viability of Vero cells under compound – cytotoxicity control for flavivirus capping enzyme inhibitors (AID 588742); format: functional; conditions: Chlorocebus sabaeus
[8] = Luminescence Cell-Based Dose Retest to Confirm Inhibitors of Cancer Stem Cells. [Related pubchem assays (depositor defined):AID2717, AID2721]; format: functional; conditions: Homo sapiens
[9] = NIH3T3 cell viability loss – ATP luminescence, mouse fibroblasts, counter-screen, dose response (AID 2010); format: functional, cell-based;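 further: cells exposed to compound for about 90 hours before reading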
[10] = Trypanosoma cruzi growth suppression in host cells – NIH3T3 host cells, beta-gal luminescence, confirmation (AID 2044); format: functional, cell-based;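 further: intracellular parasites grown in NIH/3T3 mouse fibroblasts as host cells; luminescent beta-galactosidase reporter signal from transgenic T. cruzi replicating inside host cells; inhibitors lower the luminescence signal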
[11] = biological target: SWI/SNF-related matrix-associated actin-dependent regulator of chromatin subfamily A member 2 (Homo sapiens, UniProt P51531); assay: Luminescence-based cell-based high throughput dose response assay to identify activators of the function of SWI/SNF related, matrix associated, actin dependent regulator of chromatin, subfamily a, member 2 (SMARCA2, BRM).; format: functional
[12] = Counterscreen for activators of the function of SWI/SNF related, matrix associated, actin dependent regulator of chromatin, subfamily a, member 2 (SMARCA2, BRM): Luminescence-based cell-based high throughput dose response assay to identify non-selective compounds using the VP16 reporter assay.; format: functional
Fatty acid synthase = Fatty acid synthase (Homo sapiens, UniProt P49327); assay: inhibition of human FAS-TE enzyme activity – biochemical, kinetic fluorescence intensity, dose response (AID 624326); format: functional;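 further: rate of fluorescence rise from hydrolysis of a fluorogenic O-methyl fluorescein ester substrate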
[13] = biological target: T2, DNA repair protein RAD52 homolog (Homo sapiens, UniProt P43351); format: functional, biochemical
T2 sequence (P43351 whole entry): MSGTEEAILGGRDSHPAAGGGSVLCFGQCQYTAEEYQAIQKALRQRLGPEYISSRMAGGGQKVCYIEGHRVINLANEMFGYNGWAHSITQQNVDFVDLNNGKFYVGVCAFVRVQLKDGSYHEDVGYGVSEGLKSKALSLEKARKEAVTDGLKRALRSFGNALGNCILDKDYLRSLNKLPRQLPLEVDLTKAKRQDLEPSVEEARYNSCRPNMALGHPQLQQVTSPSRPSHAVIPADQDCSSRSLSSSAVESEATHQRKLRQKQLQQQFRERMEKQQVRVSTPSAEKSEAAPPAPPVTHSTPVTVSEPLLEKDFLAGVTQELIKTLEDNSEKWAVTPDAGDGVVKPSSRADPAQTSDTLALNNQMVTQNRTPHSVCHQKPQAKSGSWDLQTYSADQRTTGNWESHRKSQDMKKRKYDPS

[14] = biological target: T3, Sentrin-specific protease 8 (Homo sapiens, UniProt Q96LD8); format: functional
T3 sequence (Q96LD8 whole entry): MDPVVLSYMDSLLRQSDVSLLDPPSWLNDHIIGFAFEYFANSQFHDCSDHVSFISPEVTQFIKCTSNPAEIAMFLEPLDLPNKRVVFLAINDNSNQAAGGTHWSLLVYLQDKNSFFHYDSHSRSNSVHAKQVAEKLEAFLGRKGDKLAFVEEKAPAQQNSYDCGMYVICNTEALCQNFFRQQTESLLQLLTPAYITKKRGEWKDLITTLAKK

[15] = biological target: T4, Mannose-6-phosphate isomerase (Homo sapiens, UniProt P34949); assay: MPI inhibition at elevated mannose 6-phosphate – biochemical, fluorescence intensity, high mannose 6-phosphate, primary screen (AID 1220)
T4 sequence (P34949 whole entry): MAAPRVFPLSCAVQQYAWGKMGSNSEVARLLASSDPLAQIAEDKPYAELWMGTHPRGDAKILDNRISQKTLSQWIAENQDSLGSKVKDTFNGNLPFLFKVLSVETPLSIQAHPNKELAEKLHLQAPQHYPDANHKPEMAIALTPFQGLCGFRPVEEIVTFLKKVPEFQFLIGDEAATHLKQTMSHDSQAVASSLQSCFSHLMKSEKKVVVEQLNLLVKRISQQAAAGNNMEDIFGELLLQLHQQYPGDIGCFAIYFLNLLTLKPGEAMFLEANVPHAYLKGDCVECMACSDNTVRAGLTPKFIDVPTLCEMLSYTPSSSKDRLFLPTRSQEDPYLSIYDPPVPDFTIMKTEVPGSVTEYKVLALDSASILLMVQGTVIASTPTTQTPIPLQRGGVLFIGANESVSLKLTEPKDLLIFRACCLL

[16] = biological target: T3, Sentrin-specific protease 8; format: functional; remark: listed apart in the source
[17] = Fluorescence-based cell-based high throughput dose response assay for inhibitors of the interaction of nucleotide-binding oligomerization domain containing 2 (NOD2) and the receptor-interacting serine-threonine kinase 2 (RIPK2).; format: functional; conditions: Homo sapiens
Paired box protein Pax-8 = Paired box protein Pax-8 (Homo sapiens, UniProt Q06710); assay: PAX8 transcriptional activity inhibition in RMG-I – RMG-I cells, luciferase, cherry-pick, dose response (AID 687027); format: functional, cell-based;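 further: luciferase reporter driven by Pax8 target thyroperoxidase promoter measured by SteadyGlo luminescence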
[18] = biological target: T5, Small ubiquitin-related modifier 1 (Homo sapiens, UniProt P63165); assay: SUMO1 protein-protein binding blockers, potency – biochemical, FRET, dose response (AID 624383); format: functional; conditions: read-out: IC50_Mean
[19] = biological target: T5, Small ubiquitin-related modifier 1; assay: SUMO1 protein interaction blockers, potency – biochemical, fluorescence polarization, uHTS hits, dose response (AID 624382); format: functional; conditions: read-out: IC50_Mean
[20] = tested on: Streptococcus sp. 'group A'; assay: Streptococcus pyogenes SK(-)GAS viability under kanamycin – luminescence, BacTiterGlo, confirmation, counter-screen for streptokinase expression inhibitor project, dose response (AID 1900); format: functional, organism-based
[21] = HEK-293T viability loss after treatment – luminescence, T-cell screen hits, cytotoxicity control for TCR NF-kB inhibitor project, dose response (AID 489026); format: functional, cell-based;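 further: cells exposed to compound about 14 hours before the viability readout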
Streptokinase A = biological target: T6, Streptokinase A (Streptococcus pyogenes serotype M1, UniProt P10520); assay: viability-normalized secreted streptokinase activity reduction – plasminogen activation absorbance, OD405, dose response (AID 1914); format: functional, Streptococcus pyogenes M1 GAS;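 further: secreted streptokinase activity via plasminogen activation per viability signal from cell pellet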
T6 sequence (P10520 whole entry): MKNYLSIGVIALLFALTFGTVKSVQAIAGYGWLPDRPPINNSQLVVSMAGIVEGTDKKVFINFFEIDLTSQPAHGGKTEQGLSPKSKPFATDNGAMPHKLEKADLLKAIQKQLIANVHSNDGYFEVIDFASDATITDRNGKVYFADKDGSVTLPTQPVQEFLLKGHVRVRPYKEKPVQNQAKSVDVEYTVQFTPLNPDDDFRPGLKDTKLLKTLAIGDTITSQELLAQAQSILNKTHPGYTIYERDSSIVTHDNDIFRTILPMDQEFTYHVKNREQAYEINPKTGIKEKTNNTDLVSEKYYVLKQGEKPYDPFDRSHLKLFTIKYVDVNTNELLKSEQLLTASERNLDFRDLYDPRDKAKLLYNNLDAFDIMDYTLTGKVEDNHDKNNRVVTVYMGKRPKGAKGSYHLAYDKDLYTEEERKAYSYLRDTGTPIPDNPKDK

Streptococcus = assay: GAS UMAA2166 growth inhibition – luminescence, BacTiterGlo, counter-screen for streptokinase expression inhibitor project, dose response (AID 1915); format: functional, organism-based;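 further: potency for reduction of bacterial viability or growth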

Chain of NAD-dependent protein deacylase sirtuin-5, mitochondrial (Q9NXA8 whole entry): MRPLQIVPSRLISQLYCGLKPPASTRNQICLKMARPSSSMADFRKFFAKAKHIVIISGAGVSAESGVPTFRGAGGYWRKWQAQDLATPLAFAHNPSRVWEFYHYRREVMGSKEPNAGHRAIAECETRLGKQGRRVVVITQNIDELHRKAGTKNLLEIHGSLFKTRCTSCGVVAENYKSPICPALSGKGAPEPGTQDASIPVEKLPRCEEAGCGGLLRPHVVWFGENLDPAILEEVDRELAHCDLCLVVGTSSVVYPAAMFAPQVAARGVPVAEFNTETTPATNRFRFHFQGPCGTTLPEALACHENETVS
Chain of SWI/SNF-related matrix-associated actin-dependent regulator of chromatin subfamily A member 2 (P51531 whole entry): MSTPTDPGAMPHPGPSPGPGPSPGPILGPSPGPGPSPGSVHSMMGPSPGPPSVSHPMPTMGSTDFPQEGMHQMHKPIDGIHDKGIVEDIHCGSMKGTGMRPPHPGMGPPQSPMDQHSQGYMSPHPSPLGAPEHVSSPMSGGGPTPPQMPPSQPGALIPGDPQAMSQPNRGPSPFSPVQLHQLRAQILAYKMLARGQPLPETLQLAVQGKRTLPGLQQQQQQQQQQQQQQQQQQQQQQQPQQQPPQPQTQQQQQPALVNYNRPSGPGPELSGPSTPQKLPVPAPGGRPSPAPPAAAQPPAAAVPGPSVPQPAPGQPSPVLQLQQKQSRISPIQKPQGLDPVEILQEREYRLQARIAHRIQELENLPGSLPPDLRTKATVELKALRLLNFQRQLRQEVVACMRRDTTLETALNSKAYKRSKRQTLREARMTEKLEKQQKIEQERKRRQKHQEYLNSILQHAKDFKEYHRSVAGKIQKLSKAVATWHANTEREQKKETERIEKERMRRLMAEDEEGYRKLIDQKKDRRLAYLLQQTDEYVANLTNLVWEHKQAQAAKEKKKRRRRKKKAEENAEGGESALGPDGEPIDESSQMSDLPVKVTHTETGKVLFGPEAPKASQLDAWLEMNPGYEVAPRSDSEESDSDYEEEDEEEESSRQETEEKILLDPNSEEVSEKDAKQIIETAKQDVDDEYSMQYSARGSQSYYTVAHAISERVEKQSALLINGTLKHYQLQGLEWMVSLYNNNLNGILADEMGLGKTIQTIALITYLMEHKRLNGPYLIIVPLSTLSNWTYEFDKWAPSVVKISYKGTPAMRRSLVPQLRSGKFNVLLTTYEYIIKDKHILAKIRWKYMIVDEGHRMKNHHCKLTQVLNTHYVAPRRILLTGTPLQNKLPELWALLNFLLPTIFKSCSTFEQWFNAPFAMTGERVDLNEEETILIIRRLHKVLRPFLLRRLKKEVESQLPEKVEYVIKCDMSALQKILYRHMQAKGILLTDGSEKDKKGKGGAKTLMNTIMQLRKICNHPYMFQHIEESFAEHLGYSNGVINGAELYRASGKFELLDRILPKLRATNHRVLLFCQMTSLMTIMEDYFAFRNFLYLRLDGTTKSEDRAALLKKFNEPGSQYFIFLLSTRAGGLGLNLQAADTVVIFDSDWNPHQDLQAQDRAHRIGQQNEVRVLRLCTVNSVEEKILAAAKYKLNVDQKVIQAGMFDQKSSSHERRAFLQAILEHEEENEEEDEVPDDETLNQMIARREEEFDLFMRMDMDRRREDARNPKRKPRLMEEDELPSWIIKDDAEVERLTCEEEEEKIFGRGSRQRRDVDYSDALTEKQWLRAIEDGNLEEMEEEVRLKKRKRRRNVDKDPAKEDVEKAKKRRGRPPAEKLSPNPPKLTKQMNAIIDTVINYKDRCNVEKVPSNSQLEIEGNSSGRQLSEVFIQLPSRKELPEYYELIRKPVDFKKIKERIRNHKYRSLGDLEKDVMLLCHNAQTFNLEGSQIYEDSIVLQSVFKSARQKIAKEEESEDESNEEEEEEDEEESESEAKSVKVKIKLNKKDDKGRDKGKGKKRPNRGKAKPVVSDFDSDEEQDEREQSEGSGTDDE
T5 sequence (P63165 whole entry): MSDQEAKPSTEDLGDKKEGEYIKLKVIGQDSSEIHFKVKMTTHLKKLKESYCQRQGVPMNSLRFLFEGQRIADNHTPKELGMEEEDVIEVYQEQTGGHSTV
Chain of Fatty acid synthase (P49327 whole entry): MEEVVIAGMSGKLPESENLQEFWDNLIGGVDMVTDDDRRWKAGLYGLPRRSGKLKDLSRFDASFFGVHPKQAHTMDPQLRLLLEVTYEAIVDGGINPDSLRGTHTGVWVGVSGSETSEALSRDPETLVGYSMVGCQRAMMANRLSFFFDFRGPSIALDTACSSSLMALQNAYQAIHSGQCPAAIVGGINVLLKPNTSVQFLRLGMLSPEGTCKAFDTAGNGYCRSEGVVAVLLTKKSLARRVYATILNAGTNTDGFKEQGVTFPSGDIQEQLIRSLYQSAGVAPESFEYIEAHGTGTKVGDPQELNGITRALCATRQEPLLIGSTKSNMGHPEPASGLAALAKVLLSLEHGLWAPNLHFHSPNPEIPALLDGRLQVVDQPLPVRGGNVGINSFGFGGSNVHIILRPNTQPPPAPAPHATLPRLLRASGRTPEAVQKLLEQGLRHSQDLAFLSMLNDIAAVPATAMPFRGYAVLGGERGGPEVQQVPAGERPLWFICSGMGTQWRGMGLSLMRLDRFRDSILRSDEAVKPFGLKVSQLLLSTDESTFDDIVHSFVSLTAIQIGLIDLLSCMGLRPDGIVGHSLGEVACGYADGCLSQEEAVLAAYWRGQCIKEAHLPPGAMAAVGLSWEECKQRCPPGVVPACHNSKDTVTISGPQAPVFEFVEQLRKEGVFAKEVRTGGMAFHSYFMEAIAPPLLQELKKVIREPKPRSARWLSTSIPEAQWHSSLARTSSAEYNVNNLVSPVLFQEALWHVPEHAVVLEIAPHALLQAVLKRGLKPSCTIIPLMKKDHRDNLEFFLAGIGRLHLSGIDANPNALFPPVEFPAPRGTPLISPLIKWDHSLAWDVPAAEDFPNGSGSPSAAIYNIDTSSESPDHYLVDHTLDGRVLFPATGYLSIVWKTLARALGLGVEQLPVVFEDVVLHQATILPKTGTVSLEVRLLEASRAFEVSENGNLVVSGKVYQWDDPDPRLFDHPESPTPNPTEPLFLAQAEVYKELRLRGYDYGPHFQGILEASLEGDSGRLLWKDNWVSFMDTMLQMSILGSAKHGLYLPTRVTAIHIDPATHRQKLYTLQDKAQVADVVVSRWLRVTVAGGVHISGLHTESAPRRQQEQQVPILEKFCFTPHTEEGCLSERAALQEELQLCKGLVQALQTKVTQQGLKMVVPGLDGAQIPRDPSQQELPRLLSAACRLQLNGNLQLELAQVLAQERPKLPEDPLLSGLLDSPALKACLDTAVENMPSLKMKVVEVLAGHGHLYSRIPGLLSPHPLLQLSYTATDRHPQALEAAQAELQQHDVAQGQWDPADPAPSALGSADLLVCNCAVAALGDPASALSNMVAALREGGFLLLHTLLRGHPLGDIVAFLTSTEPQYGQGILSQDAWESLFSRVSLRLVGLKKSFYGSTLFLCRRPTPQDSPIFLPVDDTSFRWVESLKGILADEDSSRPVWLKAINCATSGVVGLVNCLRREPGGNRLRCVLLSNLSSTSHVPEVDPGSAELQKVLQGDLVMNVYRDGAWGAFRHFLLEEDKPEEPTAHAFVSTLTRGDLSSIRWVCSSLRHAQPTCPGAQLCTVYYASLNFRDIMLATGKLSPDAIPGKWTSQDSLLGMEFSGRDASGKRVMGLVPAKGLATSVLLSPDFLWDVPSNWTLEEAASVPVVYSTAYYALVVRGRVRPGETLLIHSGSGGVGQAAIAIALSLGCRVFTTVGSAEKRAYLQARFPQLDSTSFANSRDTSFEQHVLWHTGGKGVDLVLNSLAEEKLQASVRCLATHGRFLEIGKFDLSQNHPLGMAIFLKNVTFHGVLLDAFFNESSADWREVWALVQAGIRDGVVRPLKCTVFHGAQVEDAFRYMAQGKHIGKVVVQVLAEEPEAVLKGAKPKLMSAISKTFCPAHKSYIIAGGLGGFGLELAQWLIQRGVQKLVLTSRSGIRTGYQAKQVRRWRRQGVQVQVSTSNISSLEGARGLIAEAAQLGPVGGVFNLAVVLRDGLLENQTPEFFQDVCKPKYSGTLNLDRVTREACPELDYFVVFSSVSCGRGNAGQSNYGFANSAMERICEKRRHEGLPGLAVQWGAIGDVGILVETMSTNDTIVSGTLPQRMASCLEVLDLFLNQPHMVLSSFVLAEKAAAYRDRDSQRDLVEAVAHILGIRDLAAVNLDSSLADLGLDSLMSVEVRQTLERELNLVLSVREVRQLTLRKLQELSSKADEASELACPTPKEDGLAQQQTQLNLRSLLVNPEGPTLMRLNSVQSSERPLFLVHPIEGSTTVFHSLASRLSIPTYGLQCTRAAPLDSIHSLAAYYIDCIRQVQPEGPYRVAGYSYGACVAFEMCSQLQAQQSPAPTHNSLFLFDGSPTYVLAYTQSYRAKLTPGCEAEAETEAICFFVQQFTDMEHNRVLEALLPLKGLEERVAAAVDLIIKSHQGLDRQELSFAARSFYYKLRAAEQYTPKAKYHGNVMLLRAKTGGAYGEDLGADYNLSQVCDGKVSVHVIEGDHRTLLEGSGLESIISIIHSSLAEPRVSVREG
Chain of Paired box protein Pax-8 (Q06710 whole entry): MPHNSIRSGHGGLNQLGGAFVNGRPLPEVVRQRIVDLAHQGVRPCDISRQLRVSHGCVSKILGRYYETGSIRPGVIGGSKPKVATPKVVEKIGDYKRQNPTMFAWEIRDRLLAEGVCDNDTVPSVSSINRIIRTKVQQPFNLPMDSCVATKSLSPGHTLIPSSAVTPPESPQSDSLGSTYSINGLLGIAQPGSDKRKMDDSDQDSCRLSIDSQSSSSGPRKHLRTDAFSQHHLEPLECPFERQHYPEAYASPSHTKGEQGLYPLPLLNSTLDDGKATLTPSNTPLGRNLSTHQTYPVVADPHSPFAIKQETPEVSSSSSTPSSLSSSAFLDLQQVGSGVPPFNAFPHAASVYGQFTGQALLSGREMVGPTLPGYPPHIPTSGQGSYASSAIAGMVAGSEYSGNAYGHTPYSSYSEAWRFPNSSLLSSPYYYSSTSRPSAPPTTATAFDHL

Compound: Cc1cccc(-n2c(SCC(N)=O)nnc2-c2ccco2)c1
- AC50 [1]: > 30 µM (inactive)

Compound: C[C@H](CO)N1C[C@H](C)[C@H](CN(C)Cc2ccc(C(=O)Nc3ccccc3N)cc2)Oc2c(NS(=O)(=O)c3ccccc3)cccc2C1=O
- AC50 [2]: 2.19 µM (active)

Compound: O=C1C=CC(=O)N1c1ccc(Sc2ccc([N+](=O)[O-])cc2)cc1
- EC50 [3]: 24.7 µM (active)
- EC50 (BJ [4]): 7.87 µM (active)
- EC50 (BJ [5]): 21 µM (active)
- EC50 (BJ [6]): > 75 µM (inconclusive)

Compound: O=C/C=C/c1c(-c2ccccc2)cc2oc3ccccc3cc1-2
- IC50 (Nonstructural protein 1): 37.1 µM (active)
- EC50 [7]: > 260 µM (inactive)
- CC50 (Vero): > 40 µM (active)
- AC50 [8]: 10.4 µM (active)

Compound: Cc1cc(CNC(=O)Cc2c(F)cccc2Cl)nn1C
- AC50 [1]: > 30 µM (inactive)

Compound: Cc1nc2c(Cl)cccc2c(O)c1CN1CCCCCC1
- EC50 [9]: > 60 µM (not active)
- EC50 (cells): 0.046 µM (active)
- EC50 [10]: < 0.1 µM (active)

Compound: C[C@H](CO)N1C[C@H](C)[C@@H](CN(C)CC2CCCCC2)Oc2c(NC(=O)Nc3ccc(C(F)(F)F)cc3)cccc2C1=O
- AC50 [2]: 3.48 µM (active)

Compound: Cc1cc(NC(=O)c2ccco2)ncc1NC(=O)Cc1ccccc1
- EC50 [11]: > 91.2 µM (inactive)
- EC50 [12]: > 91.2 µM (inactive)

Compound: CN1CCN(c2ccc(C(=O)c3ccc(Br)cc3)cc2[N+](=O)[O-])CC1
- EC50 [3]: > 150 µM (not active)
- EC50 (BJ [4]): > 150 µM (not active)
- EC50 (BJ [5]): > 150 µM (not active)
- EC50 (BJ [6]): > 150 µM (not active)

Compound: COc1ccc(NC(=O)CC2C(=O)N(C)C(=S)N2Cc2cccs2)cc1 (centres undefined)
- IC50 (Fatty acid synthase): 15.8 µM (active)

Compound: COc1ccc2sc3cccc(NCCN(C)C)c3c(=O)c2c1
- EC50 [11]: > 10.1 µM (inactive)
- EC50 [12]: > 91.2 µM (inactive)
- AC50 [13]: 0.683 µM (active)

Compound: C[C@H](CO)N1C[C@H](C)[C@H](CN(C)Cc2ccc(-c3ccccc3)cc2)Oc2ccc(NC(=O)Nc3ccc(C(F)(F)F)cc3)cc2CC1=O
- AC50 [2]: 2.21 µM (active)

Compound: CN(C)/C=N/c1c(Br)cc(Br)c2nonc12
- IC50 [14]: 10.2 µM (active)
- IC50 [15]: > 50 µM (not active)
- IC50 [16]: 21.3 µM (active)

Compound: O=c1ccc2ccccc2c2ccccc12
- IC50 [17]: 6.6 µM (active)
- AC50 (Paired box protein Pax-8): 6.07 µM (active)

Compound: CC1CC(C)CN(CCOCCSc2ccccc2)C1 (centres undefined)
- EC50 [9]: > 60 µM (inconclusive)
- EC50 (cells): 0.09 µM (active)
- EC50 [10]: < 0.1 µM (active)

Compound: COc1cc(C(=O)NNC(=O)C2CCC2)cc(OC)c1OC
- AC50 [1]: 29.9 µM (active)

Compound: O=C(N/N=C/c1ccc([N+](=O)[O-])o1)c1cn(-c2ccccc2)nc1-c1ccc(Cl)cc1
- EC50 [9]: > 30 µM (not active)
- EC50 (cells): 0.028 µM (active)
- EC50 [10]: < 0.1 µM (active)

Compound: CC(=O)c1ccc(OC(=O)Cc2cccc3ccccc23)cc1
- AC50 [1]: 10.4 µM (active)

Compound: CCN(CC)CCNC(=O)C(Cl)=C1C(Cl)=C(Cl)C(Cl)=C1Cl
- EC50 [11]: > 91.2 µM (inactive)
- EC50 [12]: > 91.2 µM (inactive)

Compound: NS(=O)(=O)c1ccc(CCNC(=O)COC(=O)c2ccc([N+](=O)[O-])o2)cc1
- IC50 [14]: 9.2 µM (active)
- IC50 [16]: 6.46 µM (active)

Compound: COc1ccc(C(=O)Nc2ccccc2C(=O)NC(Cc2ccc(O)cc2)C(=O)NNC(=O)c2ccc(C)cc2)cc1 (centres undefined)
- IC50 [18]: 2.32 µM (active)
- IC50 [19]: > 66.6 µM (inactive)

Compound: COC(=O)c1cnc(Oc2ccc(NC(=O)NC(=O)c3c(F)cccc3Cl)cc2)cc1C(F)(F)F
- EC50 [3]: 3.69 µM (inconclusive)
- EC50 (BJ [4]): 1.08 µM (active)
- EC50 [20]: 49 µM (active)
- IC50 [21]: > 80 µM (inactive)
- EC50 (BJ [5]): 36.1 µM (inconclusive)
- EC50 (Streptokinase A): 1.95 µM (active)
- EC50 (Streptococcus): > 150 µM (not active)
- EC50 (BJ [6]): 19.9 µM (active)

Compound: C[C@@H]1CN([C@@H](C)CO)C(=O)Cc2cc(NC(=O)Nc3ccccc3)ccc2O[C@@H]1CN(C)Cc1ccc(Cl)c(Cl)c1
- AC50 [2]: 3.92 µM (active)
